Assay results as given in BindingDB's records for doi:10.1016/j.bmcl.2009.09.123 (Genomics Institute of The Novartis Research Foundation, 2009).

Key:
[1] = Inhibition of Tel-fused LCK expressed in mouse BAF3 cells
[2] = Inhibition of Tel-fused SRC expressed in mouse BAF3 cells
[3] = Inhibition of Tel-fused LYN expressed in mouse BAF3 cells
[4] = Inhibition of Tel-fused KDR expressed in mouse BAF3 cells

| IC50 [1] [nM] | IC50 [2] [nM] | IC50 [3] [nM] | IC50 [4] [nM] | SMILES |
| --- | --- | --- | --- | --- |
| 32 | 490 | 82 | 280 | Cc1cccc(C(=O)Nc2ccc(C)c(Nc3nc4ccccc4n3-c3cc(N)ncn3)c2)c1 [N-(3-(1-(6-aminopyrimidin-4-yl)-1H-benzo[d]imidazol-2-ylamino)-4-methylphenyl)-3-methylbenzamide] |
| 4 | 4 | 5 | 4 | Cc1ccc(NC(=O)c2ccc(C(C)(C)C)s2)cc1Nc1nc2ccccc2n1-c1cc(N)ncn1 [N-(3-(1-(6-aminopyrimidin-4-yl)-1H-benzo[d]imidazol-2-ylamino)-4-methylphenyl)-5-tert-butylthiophene-2-carboxamide] |
| > 10000 | > 10000 | > 10000 | > 10000 | COc1cc(-n2c(Nc3cc(NC(=O)c4cccc(C(F)(F)F)c4)ccc3C)nc3ccccc32)ncn1 [N-(3-(1-(6-methoxypyrimidin-4-yl)-1H-benzo[d]imidazol-2-ylamino)-4-methylphenyl)-3-(trifluoromethyl)benzamide] |
| 881 | 1380 | 1420 | 1710 | Cc1ccc(NC(=O)c2cccc(C(F)(F)F)c2)cc1Nc1nc2ccccc2n1-c1cc(NC2CCN(C)CC2)ncn1 [N-(4-methyl-3-(1-(6-(1-methylpiperidin-4-ylamino)pyrimidin-4-yl)-1H-benzo[d]imidazol-2-ylamino)phenyl)-3-(trifluoromethyl)benzamide] |
| 56 | 918 | 204 | 605 | Cc1ccc(NC(=O)c2cccc(C(F)(F)F)c2)cc1Nc1nc2ccccc2n1-c1cc(NCCN2CCN(C)CC2)ncn1 [N-(4-methyl-3-(1-(6-(2-(4-methylpiperazin-1-yl)ethylamino)pyrimidin-4-yl)-1H-benzo[d]imidazol-2-ylamino)phenyl)-3-(trifluoromethyl)benzamide] |
| 171 | 524 | 259 | 549 | Cc1ccc(NC(=O)c2cccc(C(F)(F)F)c2)cc1Nc1nc2ccccc2n1-c1cc(NCCc2ccccn2)ncn1 [N-(4-methyl-3-(1-(6-(2-(pyridin-2-yl)ethylamino)pyrimidin-4-yl)-1H-benzo[d]imidazol-2-ylamino)phenyl)-3-(trifluoromethyl)benzamide] |
| 25 | 601 | 149 | 582 | Cc1ccc(NC(=O)c2cccc(C(F)(F)F)c2)cc1Nc1nc2ccccc2n1-c1cc(NCCCN2CCN(C)CC2)ncn1 [N-(4-methyl-3-(1-(6-(3-(4-methylpiperazin-1-yl)propylamino)pyrimidin-4-yl)-1H-benzo[d]imidazol-2-ylamino)phenyl)-3-(trifluoromethyl)benzamide] |
| 40 | 600 | 67 | 318 | Cc1ccc(NC(=O)c2cccc(C(F)(F)F)c2)cc1Nc1nc2ccccc2n1-c1cc(NCCCC2COCCN2)ncn1 (stereo not given) [N-(4-methyl-3-(1-(6-(3-(morpholin-3-yl)propylamino)pyrimidin-4-yl)-1H-benzo[d]imidazol-2-ylamino)phenyl)-3-(trifluoromethyl)benzamide] |
| > 10000 | > 10000 | > 10000 | > 10000 | Cc1ccc(NC(=O)c2cccc(C(F)(F)F)c2)cc1Nc1nc2ccccc2n1-c1cc(N2CCOCC2)ncn1 [N-(4-methyl-3-(1-(6-morpholinopyrimidin-4-yl)-1H-benzo[d]imidazol-2-ylamino)phenyl)-3-(trifluoromethyl)benzamide] |

| SMILES | IC50 [1] [nM] | IC50 [2] [nM] | IC50 [3] [nM] | IC50 [4] [nM] |
| --- | --- | --- | --- | --- |
| Cc1ccc(NC(=O)c2cc(C3CC3)n[nH]2)cc1Nc1nc2ccccc2n1-c1cc(N)ncn1 [N-(3-(1-(6-aminopyrimidin-4-yl)-1H-benzo[d]imidazol-2-ylamino)-4-methylphenyl)-3-cyclopropyl-1H-pyrazole-5-carboxamide] | 50 | 56 | 96 | 48 |
